We go through three compounds from patent US20110275711A1, “METHOD FOR TREATING MACULAR EDEMA” (R-TECH UENO, LTD., priority 2010, published 2011).

The test system of data set [1] is rhVEGF induced retinal vascular leakage. Kind of data set: Inhibition of rhVEGF induced retinal vascular leakage in rabbit model (vitreous fluorescein leakage). It counts as in vivo, GD79B rabbit (pigmented). The settings on record: 50 μl test composition intravitreal just after rhVEGF 500 ng; for Fluorescein Leakage (AUC) right eye (treated), Mean: measured 48 h after rhVEGF, 1 h after sodium fluorescein i.v., n=8; for Inhibition of fluorescein leakage (vs. control): AUC ratio compared with vehicle control group; for ratio of AUC right/left, Mean ± S.D.: treated eye/untreated eye. The text has this: The effect of the fatty acid derivative to inhibit retinal vascular leakage in rabbit model.
Animals: GD79B rabbit (pigmented). Each group contains 8 animals.
1) 0.15 w/v % isopropyl unoprostone: formulation example 1 2) 4 w/v % triamcinolone acetonide: Kenacort® Retard (Bristol-Myers Squibb Japan, Tokyo, JP) (positive control) 3) vehicle of isopropyl unoprostone (composition comprising the ingredients of formulation example 1 except for isopropyl unoprostone) (control)
Retinal vascular leakage model animals were prepared. Recombinant human vascular endothelial cell growth factor (rhVEGF) 500 ng (in 50 μl) was injected intravitreally in the right eye of animals. Just after the injection of rhVEGE, 50 μl of test composition 1 or 2 was injected intraviterally in the right eye of the animal. The left eyes were remain untreated (no rhVEGE nor test compositions).
Forty seven (47) hours after the rhVEGF injection, 50 mg/kg of sodium fluorescein (10 w/v % in physiological saline) was injected to the animals via auricular veins. One (1) hour after the injection of sodium fluorescein, the fluorescence intensities in the vitreous body of the treated and untreated eyes were measured by using a corneal spectrophotometer. Based on the measured value, area under the curve (AUC) of the fluorescence intensity that reflects the leakage and the ratio of AUC (treated eye/untreated eye, i.e. right eye/left eye) were calculated. The AUC ratio of isopropyl unoprostone and triamcinolone acetonide administered group were compared to the AUC ratio of the control group to give the inhibition (%) of retinal vascular leakage.

A further data set has as its system macular edema. As to conditions: package insert of Xalatan; cited from earlier work.

Regarding `CCCCCCCC(=O)CC[C@@H]1[C@@H](C/C=C\CCCC(=O)OC(C)C)[C@@H](O)C[C@H]1O` [isopropyl unoprostone, (+)-isopropyl (Z)-7-[(1R,2R,3R,5S)-3,5-dihydroxy-2-(3-oxodecyl)cyclopentyl]hept-5-enoate], in data set [1], the “Fluorescein Leakage (AUC) right eye (treated), Mean” value stood at 10998.4; the “Inhibition of fluorescein leakage (vs. control)” value stood at 60%; the “ratio of AUC right/left, Mean ± S.D.” value was 3.43 ± 4.01.

Regarding `CC(C)OC(=O)CCC/C=C\C[C@@H]1[C@@H](CC[C@@H](O)CCc2ccccc2)[C@H](O)C[C@@H]1O` [latanoprost, (+)-Isopropyl (Z)-7-[(1R,2R,3R,5S)-3,5-dihydroxy-2-[(3R)-3-hydroxy-5-phenylpentyl]cyclopentyl]-5-heptenoate], the “macular edema as side effect” value in the data set on macular edema was “causes macular edema as a side effect”.

Turning to `CC1(C)O[C@@H]2C[C@H]3[C@@H]4CCC5=CC(=O)C=C[C@]5(C)[C@@]4(F)[C@@H](O)C[C@]3(C)[C@]2(C(=O)CO)O1` [triamcinolone acetonide], in data set [1], the “Fluorescein Leakage (AUC) right eye (treated), Mean” value was 3715.6; the “Inhibition of fluorescein leakage (vs. control)” value is on record as 89%; the “ratio of AUC right/left, Mean ± S.D.” value was 0.98 ± 0.44.
